Test results reported in article PMC8397425, “A Strategy to Conjugate Bioactive Fragments to Cytotoxic Diiron Bis(cyclopentadienyl) Complexes” (Organometallics, 2021).
Where “and” joins values, the source holds several entries; their conditions need not be identical. Identical values can stand only once. Like-named read-outs stand apart in the source and are kept apart here.

Tests used:
[1] = system: Human Ovarian Carcinoma (A2780) cell line; conditions: 72 h exposure, cited from earlier work
[2] = system: Human Ovarian Carcinoma Cisplatin Resistant (A2780cisR) cell line; conditions: 72 h exposure; ref 22b; cited from earlier work
[3] = system: Human Ovarian Carcinoma (A2780) cell line; assay: MTT cytotoxicity, A2780; assay type: cell-based; conditions: 72 h exposure, MTT, mean ± SD
Source text: (§1) Human ovarian carcinoma (A2780 and A2780cisR) cell lines were obtained from the European Collection of Cell Cultures. The Human Embryonic Kidney 293T (HEK 293T) cell line was obtained from the ATCC (Sigma, Buchs, Switzerland). Penicillin–streptomycin, RPMI 1640 GlutaMAX (where RPMI = Roswell Park Memorial Institute), and DMEM GlutaMAX media (where DMEM = Dulbecco’s modified Eagle medium) were obtained from Life Technologies, and fetal bovine serum (FBS) was obtained from Sigma. The cells were cultured in RPMI 1640 GlutaMAX (A2780 and A2780cisR) and DMEM GlutaMAX (HEK 293T) media containing 10% heat-inactivated FBS and 1% penicillin–streptomycin at 37 °C and CO2 (5%). The A2780cisR cell line was routinely treated with cisplatin (2 μM) in the media to maintain cisplatin resistance. The cytotoxicity was determined using the 3-(4,5-dimethyl-2-thiazolyl)-2,5-diphenyl-2H-tetrazolium bromide (MTT) assay.[42] Cells were seeded in flat-bottomed 96-well plates as a suspension in a prepared medium (100 μL aliquots and approximately 4300 cells/well) and preincubated for 24 h. Stock solutions of compounds were prepared in DMSO and were diluted in the medium. The solutions were sequentially diluted to give a final DMSO concentration of 0.5% and a final compound concentration range of 0–200 μM. Cisplatin was tested as a positive (0–100 μM) control. The compounds were placed in the preincubated 96-well plates in 100 μL aliquots, and the plates were incubated for a further 72 h. MTT (20 μL, 5 mg/mL in Dulbecco’s phosphate buffered saline) was placed in the cells, and the plates were incubated for a further 4 h. The culture medium was aspirated, and the purple formazan crystals, formed by the mitochondrial dehydrogenase activity of vital cells, were dissolved in DMSO (100 μL/well). The absorbance of the resulting solutions, directly proportional to the number of surviving cells, was quantified at 590 nm using a SpectroMax M5e multimode microplate reader (using SoftMax Pro software, version 6.2.2). The percentage of surviving cells was calculated from the absorbance of wells corresponding to the untreated control cells. The reported IC50 values are based on the means from two independent experiments, each comprising four tests per concentration level.

[4] = system: Human Ovarian Carcinoma Cisplatin Resistant (A2780cisR) cell line; assay: MTT cytotoxicity, A2780cisR; assay type: cell-based; conditions: 72 h exposure, mean ± SD
Source text: as §1

[5] = system: Human Embryonic Kidney 293T (HEK 293T) cell line; assay: MTT cytotoxicity, HEK 293T; assay type: cell-based; conditions: 72 h exposure, mean ± SD
Source text: as §1

[6] = Octanol–water partition coefficient (shake-flask, UV–vis); assay type: physicochemical; conditions: T = 21 °C
Method: The solubility of the complexes in D2O was assessed using ^1H NMR spectroscopy (see Table 1 and the Experimental Section for details). […] Data from the literature for the related nonfunctionalized complexes [2′,3′]CF3SO3 are compiled in Table 1 for comparison.[11] The octanol–water partition coefficients (Log Pow) were measured using a UV–vis method and fall within the −0.2 to +1.2 range (Table 1). […] For instance, Log Pow values of 1.07 and 0.65 are obtained for the geometric isomers [9]CF3SO3 and [10]CF3SO3, respectively. […]
Determination of partition coefficients (Log P ow)
Partition coefficients ( Pow; IUPAC: K D partition constant, 7,8 defined as Pow = corg/caq, where corg and caq are the molar concentrations of the selected compound in the organic and aqueous phases, respectively, were determined by the shake-flask method and UV-Vis measurements. 9 Values of Log Pow for diiron complexes are compiled in Table 2. All the operations were carried out at 21±1 °C. De -ionised water and 1-octanol were mixed and vigorously stirred for 24 hours at room temperature to allow saturation of both phases, then separated by centrifugation and used for the following experiments. A solution of the selected Fe compound in the organic phase (V = 5 mL) was prepared and its UV-Vis spectrum was recorded. An aliquot of the solution (Vorg = 1.5 mL) was then transferred into a test tube and the aqueous phase (Vorg = Vaq = 1.5 mL) was added. The mixture was vigorously stirred for 20 minutes and the resulting emulsion was centrifuged (5000 rpm, 10’). […]
the organic phase was recorded. The procedure was repeated three times for each compound. The partition coefficient was then calculated as PPow = AorgA0,org − Aorg, where A0,org and Aorg are the absorbance values in the organic phase, respectively before and after mixing with the aqueous phase. 9 UV-Vis measurements were carried out using 1 cm PMMA cuvettes. The wavelength of the maximum absorption of each compound was used for UV-Vis quantification.

[7] = Stability in D2O/DMSO at 37 °C by 1H NMR; assay type: physicochemical; conditions: for stability (%), residual percent of complex / stability (%), residual percentage of the complex: D2O/DMSO 2/1 v/v; for stability (%), total percentage of diiron complexes with a chlorambucil-like group: D2O/DMSO 1/1 v/v
Method: Conversely, [3–7]CF3SO3, containing either {Aryl–OCOAsp} or {Aryl-NHCOAsp} moieties, were stable under the same conditions. […] Complete conversion into the bis-hydroxide [8^2OH]^+ was achieved within 72 h. Similarly, [9,10]CF3SO3 undergo activation of the {C–Cl} bonds to give mixtures of the partially Cl/OH substituted species [9^OH]^+ and [10^OH]^+ and the fully substituted species [9^2OH]^+ and [10^2OH]^+.

[8] = Stability in cell culture medium at 37 °C by NMR; assay type: physicochemical; conditions: after 72 h
Method: Complexes [3]CF3SO3, [5]CF3SO3, and [8]CF3SO3 were selected for an evaluation of their stability in the culture medium. Compounds were dissolved in DMSO-d6, and these solutions were diluted with the cell culture medium and stored at 37 °C. According to NMR spectroscopy, progressive release of the bioactive fragment occurred over 72 h, affording [3′]^+ from [3]CF3SO3 and [5′]^+ from [5]CF3SO3 (Figures S41 and S42). […] Overall, these findings indicate that the diiron scaffold decorated with biofunctionalized vinyliminium ligands is robust in aqueous media, with a tendency to progressively release the bioactive moiety in the medium used in cytotoxicity studies.
[8]CF3SO3, after 24 h: [3']+ and chlorambucil species ([8OH]+ + [8 2OH]+) (ratio 5:2). From [8]CF3SO3, after 72 h:
[3']+ and chlorambucil species ([82OH]+) (ratio 7:2).
Determination of partition coefficients (Log P ow) […]
the organic phase was recorded. […] The partition coefficient was then calculated as PPow = AorgA0,org − Aorg, where A0,org and Aorg are the absorbance values in the organic phase, respectively before and after mixing with the aqueous phase. […] The wavelength of the maximum absorption of each compound was used for UV-Vis quantification.

COX-2 enzyme = biological target: T1, COX-2 enzyme (Homo sapiens, UniProt P35354); assay: COX-2 enzyme inhibition assay (fluorimetric); assay type: biochemical; conditions: residual enzyme activity, 25 °C, pH 8, mean ± SD
T1 construct: purchased Cayman Chemical Company
T1 sequence (P35354 18-604): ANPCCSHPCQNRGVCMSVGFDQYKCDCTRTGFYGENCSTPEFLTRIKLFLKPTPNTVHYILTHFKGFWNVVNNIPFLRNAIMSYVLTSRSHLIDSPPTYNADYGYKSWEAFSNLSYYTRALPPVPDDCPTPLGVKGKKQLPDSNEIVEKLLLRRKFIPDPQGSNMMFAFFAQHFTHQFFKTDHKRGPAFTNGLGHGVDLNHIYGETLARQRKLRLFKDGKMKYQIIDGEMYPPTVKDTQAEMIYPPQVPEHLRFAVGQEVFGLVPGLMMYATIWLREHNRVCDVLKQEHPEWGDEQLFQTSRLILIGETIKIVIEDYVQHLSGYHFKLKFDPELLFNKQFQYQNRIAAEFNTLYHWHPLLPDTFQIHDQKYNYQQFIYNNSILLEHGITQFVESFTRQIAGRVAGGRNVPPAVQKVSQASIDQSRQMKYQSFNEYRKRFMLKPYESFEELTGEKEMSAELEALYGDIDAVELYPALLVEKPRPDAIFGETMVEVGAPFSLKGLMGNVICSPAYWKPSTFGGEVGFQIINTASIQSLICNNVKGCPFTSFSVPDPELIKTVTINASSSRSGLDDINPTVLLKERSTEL
Method: Next, the possible role of the bioactive fragment in the complexes was studied.
The IC50 value was obtained using GraphPad Prism 7 software. All of the inhibitor assays were performed at least in triplicate.

[9] = Solubility in D2O by 1H NMR; assay type: physicochemical; conditions: Me2SO2 internal standard, T = 21 °C
Method: The solubility of the complexes in D2O was assessed using ^1H NMR spectroscopy (see Table 1 and the Experimental Section for details). […] Data from the literature for the related nonfunctionalized complexes [2′,3′]CF3SO3 are compiled in Table 1 for comparison.[11] The octanol–water partition coefficients (Log Pow) were measured using a UV–vis method and fall within the −0.2 to +1.2 range (Table 1). […] For instance, Log Pow values of 1.07 and 0.65 are obtained for the geometric isomers [9]CF3SO3 and [10]CF3SO3, respectively.

[10] = deuterated aqueous medium, 37 °C

Molecule	IC50 [3] [µM]	IC50 [4] [µM]	IC50 [5] [µM]	Log Pow [6]	stability (%), residual percent of complex ([7]; 24 h at 37 °C) [%]	IC50 (COX-2 enzyme) [µM]	solubility [9]	further results
O=C(O)CCCc1ccc(N(CCCl)CCCl)cc1 [chlorambucil]								IC50 ([1]; ref 22b): 5.2 ± 1.6 µM; IC50 [2]: 25 ± 4 µM
N.N.[Cl][Pt][Cl] [cisplatin, reference compound]	0.6 ± 0.1	7.9 ± 0.1	2.6 ± 0.4					
[Fe2Cp2(CO)2(μ-CO){μ-CNMe(R)}]CF3SO3 (R = Me) [[1a]CF3SO3]								IC50 [1]: > 200 µM; IC50 A2780 [1]: not active
[Fe2Cp2(CO)2(μ-CO){μ-CNMe(R)}]CF3SO3 (R = Xyl = 2,6-C6H3Me2) [[1b]CF3SO3]								IC50 [1]: 9.3 ± 0.7 µM
[Fe2Cp2(CO)(μ-CO){μ-η^1:η^3-Cγ(3-C6H4NHC(=O)C6H4OC(=O)Me)CβHCαNMe2}]CF3SO3 [[5]CF3SO3]	43 ± 6	45 ± 1	89.9 ± 0.3	–0.10 ± 0.01	69	10 ± 2		dissociation of the bioactive fragment [8]: complete dissociation
[Fe2Cp2(CO)(μ-CO){μ-η^1:η^3-Cγ(3-C6H4NHC(=O)C6H4OC(=O)Me)CβHCαNMe(Xyl)}]CF3SO3 [[6]CF3SO3]	6.5 ± 0.8	7 ± 2	7.2 ± 0.9	0.80 ± 0.02	91	66 ± 2	<1 × 10^–4 mol L^–1	
[Fe2Cp2(CO)(μ-CO){μ-η^1:η^3-Cγ(3-C6H4OC(=O)(CH2)3C6H4N(CH2CH2Cl)2)CβHCαNMe2}]CF3SO3 [[8]CF3SO3]	4.7 ± 0.4	23 ± 3	20 ± 9	1.2 ± 0.2			<1 × 10^–4 mol L^–1	stability (%), total percentage of diiron complexes with a chlorambucil-like group ([7]; 24 h at 37 °C): 84%; stability (%), total percentage of diiron complexes with a chlorambucil-like group ([7]; 72 h at 37 °C): 77%; stability of the linkage to the bioactive fragment (hydrolysis) [7, 10]: did not undergo hydrolysis; time to complete conversion into the bis-hydroxide (Cl/OH exchange) [7, 10]: ≤ 72 h
[Fe2Cp2(CO)(μ-CO){μ-η^1:η^3-Cγ(3-C6H4OC(=O)C6H4OC(=O)Me)CβHCαNMe2}]CF3SO3 [[3]CF3SO3]	24 ± 5	21 ± 5	42 ± 6	0.24 ± 0.01	81	71 ± 1		stability (%), residual percentage of the complex ([7]; 72 h at 37 °C): 57%
[Fe2Cp2(CO)(μ-CO){μ-η^1:η^3-Cγ(4-C6H4NHC(=O)(CH2)3C6H4N(CH2CH2Cl)2)CβHCαNMe2}]CF3SO3 [[10]CF3SO3]	6.4 ± 1.4	15 ± 5	30 ± 1	0.65 and 0.65 ± 0.02			<1 × 10^–4 mol L^–1	stability (%), total percentage of diiron complexes with a chlorambucil-like group ([7]; 24 h at 37 °C): 93%; stability (%), total percentage of diiron complexes with a chlorambucil-like group ([7]; 72 h at 37 °C): 85%
[Fe2Cp2(CO)(μ-CO){μ-η^1:η^3-Cγ(4-C6H4NHC(=O)C6H4OC(=O)Me)CβHCαNMe2}]CF3SO3 [[7]CF3SO3]	71 ± 14	87 ± 10	> 100	–0.19 ± 0.01	70	20 ± 2		
[Fe2Cp2(CO)(μ-CO){μ-η^1:η^3-Cγ(CH2OC(=O)C6H4OC(=O)Me)CβHCαNMe(Xyl)}]CF3SO3 [[2]CF3SO3]	13 ± 2	14 ± 1	9.2 ± 0.5	0.40 ± 0.01	85	84 ± 2	<1 × 10^–4 mol L^–1	stability (%), residual percentage of the complex ([7]; 72 h at 37 °C): 69%; release of aspirin from the linkage ([7]; deuterated aqueous medium, 37 °C, 24 h): approximately 20%
